Assay results published in PubChem BioAssay (NCI).
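Cells were grown in 96-well plates and exposed to each compound for 48 hours at five concentrations; endpoints were interpolated linearly between bracketing concentrations, or set to the highest concentration if not reached. GI50 = concentration required for 50% inhibition of growth. TGI: concentration producing complete growth inhibition.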

What was measured:
Assay in all cases: growth of human tumour cells (NCI), 48 h
786-0 renal = tested on: 786-0 renal
A498 renal = tested on: A498 renal
A549 NSCLC = tested on: A549 NSCLC
ACHN renal = tested on: ACHN renal
BT-549 breast = tested on: BT-549 breast
CAKI-1 renal = tested on: CAKI-1 renal
CCRF-CEM leukemia = tested on: CCRF-CEM leukemia
COLO 205 colon = tested on: COLO 205 colon
DU-145 prostate = tested on: DU-145 prostate
HCC-2998 colon = tested on: HCC-2998 colon
HCT-116 colon = tested on: HCT-116 colon
HCT-15 colon = tested on: HCT-15 colon
HL-60(TB) leukemia = tested on: HL-60(TB) leukemia
HOP-62 NSCLC = tested on: HOP-62 NSCLC
HOP-92 NSCLC = tested on: HOP-92 NSCLC
HS 578T breast = tested on: HS 578T breast
HT29 colon = tested on: HT29 colon
IGROV1 ovarian = tested on: IGROV1 ovarian
K-562 leukemia = tested on: K-562 leukemia
KM12 colon = tested on: KM12 colon
M14 melanoma = tested on: M14 melanoma
MALME-3M melanoma = tested on: MALME-3M melanoma
MCF7 breast = tested on: MCF7 breast
MDA-MB-231 breast = tested on: MDA-MB-231 breast
MDA-MB-435 = tested on: MDA-MB-435
MOLT-4 leukemia = tested on: MOLT-4 leukemia
NCI-H226 lung = tested on: NCI-H226 lung
NCI-H23 lung = tested on: NCI-H23 lung
NCI-H460 lung = tested on: NCI-H460 lung
NCI-H522 lung = tested on: NCI-H522 lung
NCI/ADR-RES ovarian = tested on: NCI/ADR-RES ovarian
OVCAR-3 ovarian = tested on: OVCAR-3 ovarian
OVCAR-4 ovarian = tested on: OVCAR-4 ovarian
OVCAR-5 ovarian = tested on: OVCAR-5 ovarian
OVCAR-8 ovarian = tested on: OVCAR-8 ovarian
PC-3 prostate = tested on: PC-3 prostate
RPMI-8226 leukemia = tested on: RPMI-8226 leukemia
RXF 393 renal = tested on: RXF 393 renal
SF-268 CNS = tested on: SF-268 CNS
SF-295 CNS = tested on: SF-295 CNS
SF-539 CNS = tested on: SF-539 CNS
SK-MEL-28 melanoma = tested on: SK-MEL-28 melanoma
SK-MEL-5 melanoma = tested on: SK-MEL-5 melanoma
SK-OV-3 ovarian = tested on: SK-OV-3 ovarian
SN12C renal = tested on: SN12C renal
SNB-19 CNS = tested on: SNB-19 CNS
SNB-75 CNS = tested on: SNB-75 CNS
SR leukemia = tested on: SR leukemia
SW-620 colon = tested on: SW-620 colon
T-47D breast = tested on: T-47D breast
TK-10 renal = tested on: TK-10 renal
U251 CNS = tested on: U251 CNS
UACC-257 melanoma = tested on: UACC-257 melanoma
UACC-62 melanoma = tested on: UACC-62 melanoma
UO-31 renal = tested on: UO-31 renal

Structure (SMILES): Nc1c(C(=O)Nc2cccc(Br)c2)sc2nc3c(cc12)C(=O)CCC3
- GI50 (786-0 renal): 860 nM
- TGI (786-0 renal): > 100000 nM
- GI50 (A498 renal): 189 nM
- TGI (A498 renal): 8330 nM
- GI50 (A549 NSCLC): 500 nM
- TGI (A549 NSCLC): > 100000 nM
- GI50 (ACHN renal): 15700 nM
- TGI (ACHN renal): > 100000 nM
- GI50 (BT-549 breast): 3100 nM
- TGI (BT-549 breast): > 100000 nM
- GI50 (CAKI-1 renal): 615 nM
- TGI (CAKI-1 renal): > 100000 nM
- GI50 (CCRF-CEM leukemia): 393 nM
- TGI (CCRF-CEM leukemia): > 100000 nM
- GI50 (COLO 205 colon): 401 nM
- GI50 (DU-145 prostate): 426 nM
- TGI (DU-145 prostate): > 61600 nM
- GI50 (HCC-2998 colon): 1460 nM
- TGI (HCC-2998 colon): > 53200 nM
- GI50 (HCT-116 colon): 534 nM
- TGI (HCT-116 colon): > 100000 nM
- GI50 (HCT-15 colon): 468 nM
- TGI (HCT-15 colon): > 100000 nM
- GI50 (HL-60(TB) leukemia): 408 nM
- TGI (HL-60(TB) leukemia): > 100000 nM
- GI50 (HOP-62 NSCLC): 1410 nM
- TGI (HOP-62 NSCLC): > 100000 nM
- GI50 (HOP-92 NSCLC): 640 nM
- TGI (HOP-92 NSCLC): 86200 nM
- GI50 (HS 578T breast): 597 nM
- TGI (HS 578T breast): 83500 nM
- GI50 (HT29 colon): 370 nM
- TGI (HT29 colon): > 100000 nM
- GI50 (IGROV1 ovarian): 1730 nM
- TGI (IGROV1 ovarian): > 100000 nM
- GI50 (K-562 leukemia): 140 nM
- TGI (K-562 leukemia): > 100000 nM
- GI50 (KM12 colon): 349 nM
- TGI (KM12 colon): > 100000 nM
- GI50 (M14 melanoma): 568 nM
- TGI (M14 melanoma): > 100000 nM
- GI50 (MALME-3M melanoma): 579 nM
- TGI (MALME-3M melanoma): > 100000 nM
- GI50 (MCF7 breast): 373 nM
- TGI (MCF7 breast): > 100000 nM
- GI50 (MDA-MB-231 breast): 1680 nM
- TGI (MDA-MB-231 breast): 61100 nM
- GI50 (MDA-MB-435): 91.5 nM
- TGI (MDA-MB-435): 348 nM
- GI50 (MOLT-4 leukemia): 18500 nM
- TGI (MOLT-4 leukemia): > 100000 nM
- GI50 (NCI-H226 lung): 16800 nM
- TGI (NCI-H226 lung): > 100000 nM
- GI50 (NCI-H23 lung): 583 nM
- TGI (NCI-H23 lung): > 100000 nM
- GI50 (NCI-H460 lung): 373 nM
- TGI (NCI-H460 lung): > 100000 nM
- GI50 (NCI-H522 lung): 248 nM
- GI50 (NCI/ADR-RES ovarian): 475 nM
- TGI (NCI/ADR-RES ovarian): > 100000 nM
- GI50 (OVCAR-3 ovarian): 359 nM
- TGI (OVCAR-3 ovarian): > 46500 nM
- GI50 (OVCAR-4 ovarian): 28500 nM
- TGI (OVCAR-4 ovarian): > 100000 nM
- GI50 (OVCAR-5 ovarian): 6820 nM
- TGI (OVCAR-5 ovarian): > 100000 nM
- GI50 (OVCAR-8 ovarian): 33700 nM
- TGI (OVCAR-8 ovarian): > 100000 nM
- GI50 (PC-3 prostate): 457 nM
- TGI (PC-3 prostate): > 100000 nM
- GI50 (RPMI-8226 leukemia): > 49900 nM
- TGI (RPMI-8226 leukemia): > 100000 nM
- GI50 (RXF 393 renal): 372 nM
- TGI (RXF 393 renal): 15900 nM
- GI50 (SF-268 CNS): 19500 nM
- TGI (SF-268 CNS): > 100000 nM
- GI50 (SF-295 CNS): 455 nM
- TGI (SF-295 CNS): > 59700 nM
- GI50 (SF-539 CNS): 448 nM
- TGI (SF-539 CNS): > 100000 nM
- TGI (SK-MEL-28 melanoma): > 100000 nM
- GI50 (SK-MEL-5 melanoma): 400 nM
- TGI (SK-MEL-5 melanoma): > 100000 nM
- GI50 (SK-OV-3 ovarian): 501 nM
- TGI (SK-OV-3 ovarian): > 100000 nM
- GI50 (SN12C renal): 779 nM
- TGI (SN12C renal): > 100000 nM
- GI50 (SNB-19 CNS): 7340 nM
- TGI (SNB-19 CNS): > 100000 nM
- GI50 (SNB-75 CNS): 486 nM
- TGI (SNB-75 CNS): > 52200 nM
- GI50 (SR leukemia): 525 nM
- TGI (SR leukemia): > 100000 nM
- GI50 (SW-620 colon): 426 nM
- TGI (SW-620 colon): > 100000 nM
- GI50 (T-47D breast): 2130 nM
- TGI (T-47D breast): > 100000 nM
- GI50 (TK-10 renal): 13900 nM
- TGI (TK-10 renal): > 100000 nM
- GI50 (U251 CNS): 517 nM
- TGI (U251 CNS): > 100000 nM
- GI50 (UACC-257 melanoma): > 100000 nM
- TGI (UACC-257 melanoma): > 100000 nM
- GI50 (UACC-62 melanoma): 516 nM
- TGI (UACC-62 melanoma): > 100000 nM
- GI50 (UO-31 renal): 3070 nM
- TGI (UO-31 renal): > 100000 nM
